Experimental findings from US9868766B2, “Peptides as oxytocin agonists” (Hoffmann-La Roche Inc., priority 2012, dated 2018) are described below.

The structures appear in SMILES notation. Positions of bridges follow the written chain, without caps; N, C: chain ends. Non-standard residues stand in square brackets, D forms with d. Residues, ends and D or L forms follow the SMILES beside them. Pro(trans-4-F) = O=C(O)[C@@H]1C[C@@H](F)CN1; Gly(octyl) = CCCCCCCC[C@H](N)C(=O)O; d(aIle) = CC[C@H](C)[C@@H](N)C(=O)O; αMeL = CC(C)C[C@](C)(N)C(=O)O; Chg = N[C@H](C(=O)O)C1CCCCC1; hLeu = CC(C)CC[C@H](N)C(=O)O; Pip = O=C(O)[C@@H]1CCCCN1; Ac5c = NC1(C(=O)O)CCCC1; Dap = NC[C@H](N)C(=O)O; Aib = CC(C)(N)C(=O)O; Sar = CNCC(=O)O

In the assay the target is T1, human Oxytocin (OTR) receptor (Homo sapiens, UniProt P30559).
T1 construct: expressed in transfected cells
T1 sequence (P30559 1-389): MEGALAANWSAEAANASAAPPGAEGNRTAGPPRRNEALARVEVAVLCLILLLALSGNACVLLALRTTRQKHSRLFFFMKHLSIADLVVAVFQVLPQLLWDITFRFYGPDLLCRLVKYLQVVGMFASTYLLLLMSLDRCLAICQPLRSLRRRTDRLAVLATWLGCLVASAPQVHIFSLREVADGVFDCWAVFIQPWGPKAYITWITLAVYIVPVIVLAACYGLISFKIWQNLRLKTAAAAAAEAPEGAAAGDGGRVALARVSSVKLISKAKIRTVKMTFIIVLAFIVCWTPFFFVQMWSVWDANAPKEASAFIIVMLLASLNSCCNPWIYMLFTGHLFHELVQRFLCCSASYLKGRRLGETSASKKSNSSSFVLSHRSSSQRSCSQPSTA
The assay is described as follows: Calcium flux assay (FLIPR), agonist mode, CHO cells expressing human OTR. The settings on record: for EC50: CHO cells stably expressing human OTR, calcium flux, read-out: hOT EC50; for Emax: CHO, read-out: hOT efficacy (%); for Emax / hOT efficacy (%): maximum response normalized to endogenous full agonist = 100%. The format is cell-based. The text has this: Chines Hamster Ovary (CHO) cells were transfected with expression plasmids encoding either the human V1a, the human Oxytocin (OTR) or the humanV2 receptor, the later in combination with the chimeric Gqs5 G protein to redirect the signal to Calcium flux. Stable cells were cloned by limiting dilution to yield monoclonal cell lines expressing either human V1a, human V2+Gqs5 or human OTR receptors and selected based on functional responses detected on a fluorometric imaging plate reader (FLIPR) detecting Calcium flux in the cell after receptor activation.
On the afternoon before the assay, cells were plated at a density of 50,000 cells/well into black 96 well plates with clear bottoms to allow cell inspection and fluorescence measurements from the bottom of each well. The density of cells was sufficient to yield a confluent monolayer the next day. Hanks balanced salt solution, without phenol red, containing 20 mM HEPES (pH 7.3) and 2.5 mM probenecid (assay buffer) was prepared fresh for each experiment. Compound dilutions were made using a Beckman Biomek 2000 laboratory automation workstation, in assay buffer containing 1% DMSO. The dye-loading buffer consisted of a final concentration of 2 μM Fluo-4-AM (dissolved in DMSO and pluronic acid) in assay buffer. […] Once dye-loaded, the cells were washed thoroughly on an Embla cell washer with the assay buffer to remove any unincorporated dye. Exactly 100 μl assay buffer was left in each well.
Each 96 well plate containing dye-loaded cells was placed into the FLIPR machine and the laser intensity set to a suitable level to detect low basal fluorescence. To test compounds as agonists, 25 μl diluted compound was added to the plate 10 seconds into the fluorescent measurements and fluorescent response was recorded for 5 minutes. The fluorescence data was normalized to the endogenous full agonist dose-response set at 100% for the maximum response and 0% for the minimum. […] The concentration of agonist that produced a half-maximal response is represented by the EC50 value, the logarithm of which yielded the pEC50 value.

`CC[C@H](C)[C@@H]1NC(=O)[C@H](Cc2ccc(O)cc2)NC(=O)CNC(=O)CC[C@@H](C(=O)N(C)CC(=O)NC2(C(=O)NCC(N)=O)CCCC2)NC(=O)[C@H](CC(N)=O)NC(=O)[C@H](CCC(N)=O)NC1=O` [Example 48] (GYIQNE[Sar][Ac5c]G-NH2; lactam N-6): the EC50 stood at 3.6 nM and the Emax came to 108%.

Turning to `CCCCCCCC[C@H](NC(=O)CN(C)C(=O)[C@@H]1CCC(=O)NCC(=O)N[C@@H](Cc2ccc(O)cc2)C(=O)N[C@@H]([C@@H](C)CC)C(=O)N[C@@H](CCC(N)=O)C(=O)N[C@@H](CC(N)=O)C(=O)N1)C(=O)NCC(N)=O` [Example 54] (GYIQNE[Sar][Gly(octyl)]G-NH2; lactam N-6), the EC50 amounted to 0.8 nM and the Emax is 134%.

In the case of `CC[C@H](C)[C@@H]1NC(=O)[C@H](Cc2ccc(O)cc2)NC(=O)[C@H](C)NC(=O)CC[C@@H](C(=O)N2CCC[C@H]2C(=O)N[C@@H](CC(C)C)C(=O)NCC(N)=O)NC(=O)[C@H](CC(N)=O)NC(=O)[C@H](CCC(N)=O)NC1=O` [Example 3] (AYIQNEPLG-NH2; lactam N-6), the EC50 is 4 nM and the “hOT efficacy (%)” value is on record as 94%.

On to `CC[C@H](C)[C@@H]1NC(=O)[C@H](Cc2ccc(O)cc2)NC(=O)CNC(=O)CC[C@@H](C(=O)N(C)CC(=O)N[C@@H](CCC(C)C)C(=O)NCC(N)=O)NC(=O)[C@H](CC(N)=O)NC(=O)[C@H](CCC(N)=O)NC1=O` [Example 43] (GYIQNE[Sar][hLeu]G-NH2; lactam N-6), for which the EC50 stood at 26 nM and the “hOT efficacy (%)” value amounted to 124%.

`CC[C@H](C)[C@@H]1NC(=O)[C@H](Cc2ccc(O)cc2)NC(=O)CNC(=O)CC[C@@H](C(=O)N2CCC[C@H]2C(=O)N[C@@H](CC(C)C)C(=O)NCC(N)=O)NC(=O)[C@H](CC(N)=O)NC(=O)[C@H](Cc2cnc[nH]2)NC1=O` [Example 9] (GYIHNEPLG-NH2; lactam N-6): the EC50 came to 118 nM and the “hOT efficacy (%)” value was determined as 93%.

As to `CC[C@H](C)[C@@H]1NC(=O)[C@H](Cc2ccc(O)cc2)NC(=O)CNC(=O)CC[C@@H](C(=O)N2CCC[C@H]2C(=O)NCC(=O)NCC(N)=O)NC(=O)[C@H](CC(N)=O)NC(=O)[C@H](CCC(N)=O)NC1=O` [Example 7] (GYIQNEPGG-NH2; lactam N-6), the concentration for a half-maximal effect (EC50) is 124 nM and the “hOT efficacy (%)” value came out at 87%.

Turning to `CC[C@H](C)[C@@H]1NC(=O)[C@H](Cc2ccc(O)cc2)NC(=O)CNC(=O)CC[C@H](C(=O)N2CCC[C@H]2C(=O)N[C@@H](CC(C)C)C(=O)NCC(N)=O)NC(=O)[C@H](CC(N)=O)NC(=O)[C@H](CCC(N)=O)NC1=O` [Example 14] (GYIQN[dE]PLG-NH2; lactam N-6), the EC50 came to 250 nM and the “hOT efficacy (%)” value was 92%.

For the molecule `CC[C@H](C)[C@@H]1NC(=O)[C@H](Cc2ccc(O)cc2)NC(=O)CNC(=O)CC[C@@H](C(=O)N2C[C@H](F)C[C@H]2C(=O)N[C@@H](CC(C)C)C(=O)NCC(N)=O)NC(=O)[C@H](CC(N)=O)NC(=O)[C@H](CCC(N)=O)NC1=O` [Example 46] (GYIQNE[Pro(trans-4-F)]LG-NH2; lactam N-6), the EC50 was found to be 10 nM and the “hOT efficacy (%)” value is reported as 104%.

As for `CC[C@H](C)[C@@H]1NC(=O)[C@H](Cc2ccc(O)cc2)NC(=O)CNC(=O)CC[C@@H](C(=O)N(C)CC(=O)N[C@@H](CC(C)C)C(=O)NCC(N)=O)NC(=O)[C@H](CC(N)=O)NC(=O)[C@H](C(C)C)NC1=O` [Example 55] (GYIVNE[Sar]LG-NH2; lactam N-6), the EC50 was determined as 20 nM and the “hOT efficacy (%)” value is 104%.

As to `CC[C@H](C)[C@@H]1NC(=O)[C@H](Cc2ccc(O)cc2)NC(=O)CNC(=O)CC[C@@H](C(=O)N2CCC[C@@H]2C(=O)N[C@@H](CC(C)C)C(=O)NCC(N)=O)NC(=O)[C@H](CC(N)=O)NC(=O)[C@H](CCC(N)=O)NC1=O` [Example 23] (GYIQNE[dP]LG-NH2; lactam N-6), the EC50 stood at 88 nM and the “hOT efficacy (%)” value came to 64%.

Take `CC[C@H](C)[C@@H]1NC(=O)[C@H](Cc2ccc(O)cc2)NC(=O)CNC(=O)CC[C@@H](C(=O)N(C)CC(=O)N[C@@H](CC(C)C)C(=O)NCC(N)=O)NC(=O)[C@H](CC(N)=O)NC(=O)[C@H](CO)NC1=O` [Example 52] (GYISNE[Sar]LG-NH2; lactam N-6): the half-maximal effective concentration (EC50) came out at 4.3 nM and the Emax stood at 121%.

As for `CC[C@H](C)[C@@H]1NC(=O)[C@H](Cc2ccc(O)cc2)NC(=O)CNC(=O)CC[C@@H](C(=O)N2CCC[C@H]2C(=O)N[C@@](C)(CC(C)C)C(=O)NCC(N)=O)NC(=O)[C@H](CC(N)=O)NC(=O)[C@H](CCC(N)=O)NC1=O` [Example 36] (GYIQNEP[αMeL]G-NH2; lactam N-6), the EC50 came to 41 nM and the “hOT efficacy (%)” value stood at 138%.

As for `CC[C@H](C)[C@@H]1NC(=O)[C@H](Cc2ccc(O)cc2)NC(=O)CNC(=O)CC[C@@H](C(=O)N(C)CC(=O)NC(C)(C)C(=O)NCC(N)=O)NC(=O)[C@H](CC(N)=O)NC(=O)[C@H](CCC(N)=O)NC1=O` [Example 49] (GYIQNE[Sar][Aib]G-NH2; lactam N-6), the EC50 stood at 5.9 nM and the Emax stood at 97%.

With `CC[C@H](C)[C@H]1NC(=O)[C@H](Cc2ccc(O)cc2)NC(=O)CNC(=O)CC[C@@H](C(=O)N2CCC[C@H]2C(=O)N[C@@H](CC(C)C)C(=O)NCC(N)=O)NC(=O)[C@H](CC(N)=O)NC(=O)[C@H](CCC(N)=O)NC1=O` [Example 22] (GY[d(aIle)]QNEPLG-NH2; lactam N-6), the EC50 was 98 nM and the “hOT efficacy (%)” value turned out to be 116%.

For the molecule `CC[C@H](C)[C@@H]1NC(=O)[C@H](Cc2ccc(O)cc2)NC(=O)CNC(=O)CC[C@@H](C(=O)N(C)CC(=O)N[C@@H](CN)C(=O)NCC(N)=O)NC(=O)[C@H](CC(N)=O)NC(=O)[C@H](CCC(N)=O)NC1=O` [Example 42] (GYIQNE[Sar][Dap]G-NH2; lactam N-6), the EC50 turned out to be 1 nM and the Emax amounted to 119%.

For the molecule `CC(C)C[C@@H]1NC(=O)[C@H](Cc2ccc(O)cc2)NC(=O)CNC(=O)CC[C@@H](C(=O)N2CCC[C@H]2C(=O)N[C@@H](CC(C)C)C(=O)NCC(N)=O)NC(=O)[C@H](CC(N)=O)NC(=O)[C@H](CCC(N)=O)NC1=O` [Example 8] (GYLQNEPLG-NH2; lactam N-6), the EC50 was 100 nM and the “hOT efficacy (%)” value is recorded as 92%.

Regarding `CC[C@H](C)[C@@H]1NC(=O)[C@H](Cc2ccc(O)cc2)NC(=O)CNC(=O)CC[C@@H](C(=O)N2CCCC[C@H]2C(=O)N[C@@H](CC(C)C)C(=O)NCC(N)=O)NC(=O)[C@H](CC(N)=O)NC(=O)[C@H](CCC(N)=O)NC1=O` [Example 47] (GYIQNE[Pip]LG-NH2; lactam N-6), the EC50 is 1.5 nM and the Emax came out at 111%.

As for `CC[C@H](C)[C@@H]1NC(=O)[C@H](Cc2ccc(O)cc2)NC(=O)CNC(=O)CC[C@@H](C(=O)N(C)CC(=O)N[C@@H](Cc2c[nH]c3ccccc23)C(=O)NCC(N)=O)NC(=O)[C@H](CC(N)=O)NC(=O)[C@H](CCC(N)=O)NC1=O` [Example 38] (GYIQNE[Sar]WG-NH2; lactam N-6), the EC50 amounted to 1 nM and the Emax is 126%.

Take `CC[C@H](C)[C@@H]1NC(=O)[C@H](Cc2ccc(O)cc2)NC(=O)CNC(=O)CC[C@@H](C(=O)N2CCC[C@H]2C(=O)N[C@@H](CC(C)C)C(=O)N(C)CC(N)=O)NC(=O)[C@H](CC(N)=O)NC(=O)[C@H](CCC(N)=O)NC1=O` [Example 5] (GYIQNEPL[Sar]-NH2; lactam N-6): the EC50 came out at 181 nM and the “hOT efficacy (%)” value is on record as 108%.

On to `CC[C@H](C)[C@@H]1NC(=O)[C@H](Cc2ccc(O)cc2)NC(=O)CNC(=O)CC[C@@H](C(=O)N(C)CC(=O)N[C@H](C(=O)NCC(N)=O)C2CCCCC2)NC(=O)[C@H](CC(N)=O)NC(=O)[C@H](CCC(N)=O)NC1=O` [Example 41] (GYIQNE[Sar][Chg]G-NH2; lactam N-6), for which the EC50 came out at 69 nM and the “hOT efficacy (%)” value worked out at 117%.
